According to US7355079B2, “Thyronamine derivatives and analogs and methods of use thereof” (The Regents of the University of California, priority 2003, dated 2008):
Where a name gives a salt, the structure may show the parent alone.

What follows are molecules tested against T1, mouse TAR-1 (Mus musculus, UniProt Q923Y8) (assay: cAMP assay, activation of mouse TAR-1). Conditions: not given.
T1 construct: expressed in transfected cells
T1 sequence (Q923Y8 whole entry): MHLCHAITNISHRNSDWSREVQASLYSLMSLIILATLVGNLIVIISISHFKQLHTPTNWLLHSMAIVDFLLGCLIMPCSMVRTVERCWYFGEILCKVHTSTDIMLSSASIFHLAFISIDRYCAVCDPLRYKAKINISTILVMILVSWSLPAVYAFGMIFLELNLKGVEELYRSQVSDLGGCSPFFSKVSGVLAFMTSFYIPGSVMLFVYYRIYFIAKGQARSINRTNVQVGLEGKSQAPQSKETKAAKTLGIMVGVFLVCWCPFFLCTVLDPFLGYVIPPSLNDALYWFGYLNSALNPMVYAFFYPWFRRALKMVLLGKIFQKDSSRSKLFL
Assay type: cell-based
Method: cAMP Assay. HEK293 cells were harvested in Krebs-Ringer-HEPES buffer (KRH) and preincubated in KRH with 200 μM 3-isobutyl-methylxanthine. For drug treatments cells were incubated in KRH with 100 μM 3-isobutyl-1-methylxanthine with the test compound (or 10 μM forskolin) for 1 hour at 37° C. The cells were then boiled for 20 minutes after adding an equal volume of 0.5 mM sodium acetate buffer, centrifuged to remove cell debris, and the resulting extract was analyzed for cAMP content using competitive binding of [^3H]cAMP to a cAMP binding protein (Diagnostic Products Corp., Los Angeles, Calif.). Data were normalized according to protein content as determined using the Bradford reagent (Bio-Rad). Concentration-response curves were plotted and EC50 values calculated with Prism software (GraphPad, San Diego, Calif.).
With `NCCc1ccc(Oc2ccccc2)cc1` [Compound 31, O-phenyl-tyramine Hydrochloride] the EC50 was at most 500 nM. Work on `NCCc1ccc(OCc2ccccc2)cc1` [Compound 32, O-benzyl-tyramine hydrochloride] yielded an EC50 of at most 500 nM. In the case of `NCCc1ccc(OCc2ccccc2)c(I)c1` [Compound 39, O-benzyl-3-iodotyramine Hydrochloride], the EC50 is reported as at most 500 nM. For `NCCc1ccc(OCCc2ccccc2)cc1` [Compound 40, O-(2-phenyl)ethyl Tyramine Hydrochloride], the EC50 was at most 500 nM. `NCCc1ccc(OCc2ccc(F)cc2)cc1` [Compound 41, O-(p-fluoro)benzyl Tyramine Hydrochloride] showed an EC50 of at most 500 nM. In the case of `COc1cccc(COc2ccc(CCN)cc2)c1` [Compound 42, O-(m-methoxy)benzyl Tyramine Hydrochloride], the EC50 is reported as at most 500 nM. `NCCc1ccc(OCc2ccc(C(F)(F)F)cc2)cc1` [Compound 43, O-(p-trifluoromethyl)benzyl Tyramine Hydrochloride] was tested, and the EC50 was at most 500 nM. `Cc1cc(C)cc(COc2ccc(CCN)cc2)c1` [Compound 44, O-(m,m-dimethyl)benzyl Tyramine Hydrochloride] was tested, and the EC50 was at most 500 nM. `CNCCc1ccc(OCc2ccccc2)cc1` [Compound 51, N-methyl-O-benzyl-tyramine Hydrochloride] showed an EC50 of at most 500 nM. `CNCCc1ccc(OCc2ccccc2)c(I)c1` [Compound 52, N-methyl-O-benzyl-3-iodotyramine Hydrochloride] gave an EC50 of at most 500 nM. `CCNCCc1ccc(OCc2ccccc2)cc1` [Compound 53, N-ethyl-O-benzyl Tyramine Hydrochloride] showed an EC50 of at least 1000 nM. With `CCCNCCc1ccc(OCc2ccccc2)cc1` [Compound 54, N-propyl-O-benzyl Tyramine Hydrochloride] the EC50 was at least 1000 nM. For `CCCCNCCc1ccc(OCc2ccccc2)cc1` [Compound 55, N-butyl-O-benzyl Tyramine Hydrochloride], the EC50 was at least 1000 nM. In the case of `c1ccc(CNCCc2ccc(OCc3ccccc3)cc2)cc1` [Compound 56, N-benzyl-O-benzyl Tyramine Hydrochloride], the EC50 is reported as at least 1000 nM. With `NCCc1ccc(OCCCc2ccccc2)cc1` [Compound 69, 4-(3′-Phenyl)propyloxy Tyramine Hydrochloride] the EC50 was at most 500 nM. `NCCc1ccc(OCCCCc2ccccc2)cc1` [Compound 70, 4-(3′-Phenyl)butyloxy Tyramine Hydrochloride] gave an EC50 of at most 500 nM.

Same assay, conditions: unit inferred; read-out: EC50, activation of the mouse TAR-1, further panel of thyronamine analogs
Work on `CN(C)CCc1ccc(OCc2ccccc2)cc1` [Compound 74, N,N-Dimethyl-4-benzyloxy Tyramine Hydrochloride] yielded an EC50 of at least 1000 nM. For `CC(C)(C)OC(=O)NCC(C)(C)c1ccc(Oc2ccccc2)cc1` [Compound 82, N-t-Boc-4-Phenoxy-β,β-dimethyl Tyramine], the EC50 was at least 1000 nM. `CC(C)(CN)c1ccc(Oc2ccccc2)cc1` [Compound 83, 4-Phenoxy-β,β-dimethyl Tyramine Hydrochloride] showed an EC50 of at least 1000 nM. With `COc1cc(Oc2ccccc2)ccc1C(=O)NCCN` [Compound 113, 2-(2-methoxy-4-phenoxybenzamido)-ethylamine Hydrochloride] the EC50 was at least 1000 nM. Work on `COc1cc(Oc2ccccc2)ccc1C(=O)NCCCN` [Compound 114, 3-(2-methoxy-4-phenoxybenzamido)-propylamine Hydrochloride] yielded an EC50 of at least 1000 nM. For `COc1cc(Oc2ccccc2)ccc1C(=O)NCCCCN` [Compound 115, 4-(2-methoxy-4-phenoxybenzamido)-butylaniine Hydrochloride], the EC50 was at least 1000 nM. With `CN(C)CCCNC(=O)c1ccc(Oc2ccccc2)cc1` [Compound 118, N,N-dimethyl 3-(4-phenoxybenzamido)-propylamine Hydrochloride] the EC50 was at least 1000 nM. `COc1cc(Oc2ccccc2)ccc1C(=O)NCCN(C)C` [Compound 121, N,N-dimethyl 2-(2-methoxy-4-phenoxybenzamido)-ethylamine Hydrochloride] gave an EC50 of at least 1000 nM. In the case of `COc1cc(Oc2ccccc2)ccc1C(=O)NCCCN(C)C` [Compound 122, N,N-dimethyl 3-(2-methoxy4-phenoxybenzamido)-propylamine Hydrochloride], the EC50 is reported as at least 1000 nM.
